This data set is described as follows: Solubility in water. The data set is classed as physicochemical.

Each structure is given as a SMILES string.

For `O=C(CCN1C(=O)C=CC1=O)NCCCOCCOCCOCCCNC(=O)[C@H](Cc1c[nH]cn1)NC(=S)Nc1ccc(CNC(=O)CCCC[C@@H]2SC[C@@H]3NC(=O)N[C@@H]32)cc1` [Example 3], the solubility in water result was “completely soluble”.
